According to ChEMBL document CHEMBL1201861, “Genomics of Drug Sensitity in Cancer screening data, Wellcome Trust Sanger Institute”:

Assays:
Experiment in all cases: cells
[1] = test system: COLO-741; type: functional, cell-based, Homo sapiens; details: Homo sapiens, COLO-741
Description: SANGER: Inhibition of human COLO-741 cell growth in a cell viability assay.

[2] = test system: COR-L23; type: functional, cell-based, Homo sapiens; details: Homo sapiens, COR-L23;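 note: cell viability assay measuring how strongly compounds suppress growth of COR-L23 cells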
Description: SANGER: Inhibition of human COR-L23 cell growth in a cell viability assay.

[3] = test system: Ca-Ski; type: functional, cell-based; details: Homo sapiens;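 note: cell viability assay measuring inhibition of Ca-Ski cell growth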
Description: SANGER: Inhibition of human Ca-Ski cell growth in a cell viability assay.

[4] = test system: D-392MG; type: functional, cell-based, Homo sapiens; details: Homo sapiens, D-392MG
[5] = test system: D-502MG; type: functional, cell-based, Homo sapiens; details: Homo sapiens, D-502MG
Description: SANGER: Inhibition of human D-502MG cell growth in a cell viability assay.

[6] = test system: EW-24; type: functional, cell-based; details: Homo sapiens;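 note: human EW-24 cancer cell line, growth inhibition read out via a cell viability assay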
Description: SANGER: Inhibition of human EW-24 cell growth in a cell viability assay.

[7] = test system: GI-ME-N; type: functional, cell-based, Homo sapiens; details: Homo sapiens, GI-ME-N;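 note: growth inhibition of human GI-ME-N cells, read out with a cell viability assay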
Description: SANGER: Inhibition of human GI-ME-N cell growth in a cell viability assay.

[8] = test system: GMS-10; type: functional, cell-based, Homo sapiens; details: Homo sapiens, GMS-10;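 note: growth inhibition of GMS-10 cells, read out as cell viability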
Description: SANGER: Inhibition of human GMS-10 cell growth in a cell viability assay.

[9] = test system: GT3TKB; type: functional, cell-based, Homo sapiens; details: Homo sapiens, GT3TKB;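 note: growth inhibition of the cell line, read out with a cell viability assay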
Description: SANGER: Inhibition of human GT3TKB cell growth in a cell viability assay.

[10] = test system: HCC1569; type: functional, cell-based, Homo sapiens; details: Homo sapiens, HCC1569;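 note: growth inhibition of human HCC1569 cells, read out with a cell viability assay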
Description: SANGER: Inhibition of human HCC1569 cell growth in a cell viability assay.

[11] = test system: HCC70; type: functional, cell-based, Homo sapiens; details: Homo sapiens, HCC70;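 note: cell viability assay measuring how strongly the compound suppresses proliferation of HCC70 cells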
Description: SANGER: Inhibition of human HCC70 cell growth in a cell viability assay.

[12] = test system: HEC-1; type: functional, cell-based, Homo sapiens; details: Homo sapiens, HEC-1;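 note: growth inhibition of the cell line, read out with a cell viability assay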
Description: SANGER: Inhibition of human HEC-1 cell growth in a cell viability assay.

[13] = test system: HT-1080; type: functional, cell-based, Homo sapiens; details: Homo sapiens, HT-1080
Description: SANGER: Inhibition of human HT-1080 cell growth in a cell viability assay.

[14] = test system: HT1197; type: functional, cell-based, Homo sapiens, HT-1197; details: Homo sapiens, HT1197
Description: SANGER: Inhibition of human HT-1197 cell growth in a cell viability assay.

[15] = test system: Hs-578T; type: functional, cell-based, Homo sapiens; details: Homo sapiens, Hs-578T
Description: SANGER: Inhibition of human Hs-578-T cell growth in a cell viability assay.

[16] = test system: JVM-3; type: functional, cell-based; details: Homo sapiens;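 note: growth inhibition of human JVM-3 cells, read out with a cell viability assay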
Description: SANGER: Inhibition of human JVM-3 cell growth in a cell viability assay.

[17] = test system: KYSE-140; type: functional, cell-based, Homo sapiens; details: Homo sapiens, KYSE-140;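 note: cell viability assay measuring growth inhibition in human KYSE-140 cells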
Description: SANGER: Inhibition of human KYSE-140 cell growth in a cell viability assay.

[18] = test system: KYSE-150 cell line; type: functional, cell-based, Homo sapiens; details: Homo sapiens, KYSE-150;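 note: growth inhibition of human KYSE-150 cells, read out with a cell viability assay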
Description: SANGER: Inhibition of human KYSE-150 cell growth in a cell viability assay.

[19] = test system: KYSE-450; type: functional, cell-based; details: Homo sapiens;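 note: cell growth inhibition measured by a viability assay in human KYSE-450 cells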
Description: SANGER: Inhibition of human KYSE-450 cell growth in a cell viability assay.

[20] = test system: L-363; type: functional, cell-based; details: Homo sapiens
Description: SANGER: Inhibition of human L-363 cell growth in a cell viability assay.

[21] = test system: LAN-6; type: functional, cell-based, Homo sapiens; details: Homo sapiens, LAN-6;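 note: growth inhibition of LAN-6 cells, determined with a cell viability assay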
Description: SANGER: Inhibition of human LAN-6 cell growth in a cell viability assay.

[22] = test system: LU-134-A; type: functional, cell-based; details: Homo sapiens
Description: SANGER: Inhibition of human LU-134-A cell growth in a cell viability assay.

[23] = test system: LoVo; type: functional, cell-based; details: Homo sapiens;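 note: growth inhibition of human LoVo cells, read out with a cell viability assay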
Description: SANGER: Inhibition of human LoVo cell growth in a cell viability assay.

[24] = test system: MDA-MB-361; type: functional, cell-based, Homo sapiens; details: Homo sapiens, MDA-MB-361
[25] = test system: MOLT-4; type: functional, cell-based; details: Homo sapiens;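 note: growth inhibition of MOLT-4 cells, determined with a cell viability readout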
Description: SANGER: Inhibition of human MOLT-4 cell growth in a cell viability assay.

[26] = test system: MV4-11; type: functional, cell-based, MV-4-11; details: Homo sapiens;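 note: cell viability readout measuring growth inhibition of human MV-4-11 cells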
Description: SANGER: Inhibition of human MV-4-11 cell growth in a cell viability assay.

[27] = test system: MZ7-mel; type: functional, cell-based, Homo sapiens; details: Homo sapiens, MZ7-mel;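 note: growth inhibition of human MZ7-mel cells, measured by a cell viability assay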
Description: SANGER: Inhibition of human MZ7-mel cell growth in a cell viability assay.

[28] = test system: NCI-H2087; type: functional, cell-based, Homo sapiens; details: Homo sapiens, NCI-H2087;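 note: growth inhibition determined with a cell viability readout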
Description: SANGER: Inhibition of human NCI-H2087 cell growth in a cell viability assay.

[29] = test system: NCI-H2347; type: functional, cell-based, Homo sapiens; details: Homo sapiens, NCI-H2347;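 note: growth inhibition of the cell line, read out with a cell viability assay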
Description: SANGER: Inhibition of human NCI-H2347 cell growth in a cell viability assay.

[30] = test system: NCI-H2405; type: functional, cell-based, Homo sapiens; details: Homo sapiens, NCI-H2405;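 note: growth inhibition of the human cell line, read out with a cell viability assay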
Description: SANGER: Inhibition of human NCI-H2405 cell growth in a cell viability assay.

[31] = test system: NCI-H358; type: functional, cell-based, Homo sapiens; details: Homo sapiens, NCI-H358;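 note: growth inhibition of NCI-H358 human cells, read out with a cell viability assay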
Description: SANGER: Inhibition of human NCI-H358 cell growth in a cell viability assay.

[32] = test system: NCI-H810; type: functional, cell-based, Homo sapiens; details: Homo sapiens, NCI-H810;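 note: IC50 reflects inhibition of cancer cell line growth, read out with a cell viability assay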
Description: SANGER: Inhibition of human NCI-H810 cell growth in a cell viability assay.

[33] = test system: OE19; type: functional, cell-based, Homo sapiens; details: Homo sapiens, OE19;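 note: growth inhibition of OE19 cells, measured through a cell viability read-out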
Description: SANGER: Inhibition of human OE19 cell growth in a cell viability assay.

[34] = test system: ONS-76; type: functional, cell-based, Homo sapiens; details: Homo sapiens, ONS-76;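 note: growth inhibition of human ONS-76 cells, read out with a cell viability assay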
Description: SANGER: Inhibition of human ONS-76 cell growth in a cell viability assay.

[35] = test system: RCC10RGB; type: functional, cell-based, Homo sapiens; details: Homo sapiens, RCC10RGB;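 note: growth inhibition of human RCC10RGB cells, read out by a cell viability assay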
Description: SANGER: Inhibition of human RCC10RGB cell growth in a cell viability assay.

[36] = test system: RCM-1; type: functional, cell-based, Homo sapiens; details: Homo sapiens, RCM-1;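 note: growth inhibition of the RCM-1 line, determined with a cell viability readout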
Description: SANGER: Inhibition of human RCM-1 cell growth in a cell viability assay.

[37] = test system: RS4-11; type: functional, cell-based; details: Homo sapiens;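 note: growth inhibition of RS4-11 cells, read out by a cell viability assay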
Description: SANGER: Inhibition of human RS4-11 cell growth in a cell viability assay.

[38] = test system: RXF 393; type: functional, cell-based; details: Homo sapiens;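 note: growth inhibition of human RXF 393 cells, read out with a cell viability assay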
Description: SANGER: Inhibition of human RXF393 cell growth in a cell viability assay.

[39] = test system: SCC-25; type: functional, cell-based, Homo sapiens; details: Homo sapiens, SCC-25;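 note: growth inhibition of SCC-25 cells, measured with a cell viability assay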
Description: SANGER: Inhibition of human SCC-25 cell growth in a cell viability assay.

[40] = test system: SCC-9; type: functional, cell-based, Homo sapiens; details: Homo sapiens, SCC-9;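 note: Read-out is a cell viability assay, with values giving inhibition of cell growth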
Description: SANGER: Inhibition of human SCC-9 cell growth in a cell viability assay.

[41] = test system: SK-LU-1; type: functional, cell-based, Homo sapiens; details: Homo sapiens, SK-LU-1;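 note: cell viability assay measuring growth inhibition of human SK-LU-1 cells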
Description: SANGER: Inhibition of human SK-LU-1 cell growth in a cell viability assay.

[42] = test system: SK-MEL3; type: functional, cell-based, Homo sapiens, SK-MEL-3; details: Homo sapiens, SK-MEL3;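 note: growth inhibition of human SK-MEL-3 cells, read out with a cell viability assay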
Description: SANGER: Inhibition of human SK-MEL-3 cell growth in a cell viability assay.

[43] = test system: SW780; type: functional, cell-based, Homo sapiens; details: Homo sapiens, SW780;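 note: growth inhibition of the cells, read out with a cell viability assay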
Description: SANGER: Inhibition of human SW780 cell growth in a cell viability assay.

[44] = test system: ALL-PO; type: functional, cell-based; details: Homo sapiens;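 note: growth inhibition of ALL-PO cells, read out by a cell viability assay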
Description: SANGER: Inhibition of human ALL-PO cell growth in a cell viability assay.

[45] = test system: BT-474; type: functional, cell-based, Homo sapiens; details: Homo sapiens, BT-474
Description: SANGER: Inhibition of human BT-474 cell growth in a cell viability assay.

[46] = test system: BV-173; type: functional, cell-based; details: Homo sapiens
Description: SANGER: Inhibition of human BV-173 cell growth in a cell viability assay.

[47] = test system: TGW; type: functional, cell-based; details: Homo sapiens;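 note: growth inhibition of human TGW cells, read out with a cell viability assay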
Description: SANGER: Inhibition of human TGW cell growth in a cell viability assay.

[48] = test system: TYK-nu; type: functional, cell-based, Homo sapiens; details: Homo sapiens, TYK-nu;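 note: growth inhibition of human TYK-nu cells, read out by a cell viability assay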
Description: SANGER: Inhibition of human TYK-nu cell growth in a cell viability assay.

[49] = test system: UACC-893; type: functional, cell-based, Homo sapiens; details: Homo sapiens, UACC-893
Description: SANGER: Inhibition of human UACC-893 cell growth in a cell viability assay.

[50] = test system: WM-115; type: functional, cell-based, Homo sapiens; details: Homo sapiens, WM-115
Description: SANGER: Inhibition of human WM-115 cell growth in a cell viability assay.

[51] = test system: CCRF-CEM; type: functional, cell-based; details: Homo sapiens;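 note: inhibition of CCRF-CEM cell growth, measured by a cell viability assay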
Description: SANGER: Inhibition of human CCRF-CEM cell growth in a cell viability assay.

`CN(c1ncccc1CNc1nc(Nc2ccc3c(c2)CC(=O)N3)ncc1C(F)(F)F)S(C)(=O)=O` [PF-00562271] showed an IC50 [1] greater than 2560 nM, an IC50 [2] greater than 2560 nM and an IC50 [3] greater than 2560 nM. For the same molecule, the IC50 [4] was greater than 2560 nM, the IC50 [5] was greater than 2560 nM and the IC50 [6] was greater than 2560 nM. It also gave an IC50 [7] greater than 2560 nM, an IC50 [8] greater than 2560 nM and an IC50 [9] greater than 2560 nM. It also gave an IC50 [10] greater than 2560 nM, an IC50 [11] greater than 2560 nM and an IC50 [12] greater than 2560 nM. The IC50 [13] was greater than 2560 nM, the IC50 [14] was greater than 2560 nM and the IC50 [15] was greater than 2560 nM. The IC50 [16] was greater than 2560 nM, the IC50 [17] was greater than 2560 nM and the IC50 [18] was 1350 nM. For the same molecule, the IC50 [19] was greater than 2560 nM, the IC50 [20] was greater than 2560 nM and the IC50 [21] was greater than 2560 nM. For the same molecule, the IC50 [22] was greater than 2560 nM, the IC50 [23] was greater than 2560 nM and the IC50 [24] was greater than 2560 nM. For the same molecule, the IC50 [25] was greater than 2560 nM, the IC50 [26] was 277 nM and the IC50 [27] was greater than 2560 nM. For the same molecule, the IC50 [28] was greater than 2560 nM, the IC50 [29] was greater than 2560 nM and the IC50 [30] was greater than 2560 nM. For the same molecule, the IC50 [31] was greater than 2560 nM, the IC50 [32] was 1110 nM and the IC50 [33] was greater than 2560 nM. It also gave an IC50 [34] greater than 2560 nM, an IC50 [35] of 2330 nM and an IC50 [36] greater than 2560 nM. It also gave an IC50 [37] greater than 2560 nM, an IC50 [38] greater than 2560 nM and an IC50 [39] greater than 2560 nM. It also gave an IC50 [40] greater than 2560 nM, an IC50 [41] greater than 2560 nM and an IC50 [42] greater than 2560 nM. The IC50 [43] was greater than 2560 nM, the IC50 [44] was 1020 nM and the IC50 [45] was greater than 2560 nM. The IC50 [46] was greater than 2560 nM, the IC50 [47] was greater than 2560 nM and the IC50 [48] was greater than 2560 nM. The IC50 [49] was greater than 2560 nM, the IC50 [50] was greater than 2560 nM and the IC50 [51] was greater than 2560 nM.

`CCC1=C[C@@H]2CN(C1)Cc1c([nH]c3ccccc13)[C@@](C(=O)OC)(c1cc3c(cc1OC)N(C)[C@H]1[C@@](O)(C(=O)OC)[C@H](OC(C)=O)[C@]4(CC)C=CCN5CC[C@]31[C@@H]54)C2` [VINORELBINE] was tested, and the IC50 [1] was 35.7 nM, the IC50 [2] was 9.89 nM and the IC50 [3] was 19.1 nM. It also gave an IC50 [4] greater than 64 nM, an IC50 [5] greater than 64 nM and an IC50 [6] greater than 64 nM. The IC50 [7] was 5.76 nM, the IC50 [8] was greater than 64 nM and the IC50 [9] was 0.748 nM. The IC50 [10] was 4.93 nM, the IC50 [11] was 30.6 nM and the IC50 [12] was 22.7 nM. For the same molecule, the IC50 [13] was 2.49 nM, the IC50 [14] was greater than 64 nM and the IC50 [15] was greater than 64 nM. For the same molecule, the IC50 [16] was greater than 64 nM, the IC50 [17] was 23.8 nM and the IC50 [18] was 3.04 nM. The IC50 [19] was 9.74 nM, the IC50 [20] was 12.4 nM and the IC50 [21] was greater than 64 nM. It also gave an IC50 [22] of 47.2 nM, an IC50 [23] of 7.9 nM and an IC50 [24] of 9.76 nM. It also gave an IC50 [25] of 6.66 nM, an IC50 [26] of 10.4 nM and an IC50 [27] of 10.2 nM. For the same molecule, the IC50 [28] was 8.22 nM, the IC50 [29] was 26.1 nM and the IC50 [30] was 50.7 nM. The IC50 [31] was 5.89 nM, the IC50 [32] was 3.91 nM and the IC50 [33] was 13.2 nM. For the same molecule, the IC50 [34] was 3.3 nM, the IC50 [35] was greater than 64 nM and the IC50 [36] was greater than 64 nM. It also gave an IC50 [37] of 7.99 nM, an IC50 [38] of 5.06 nM and an IC50 [39] of 12.5 nM. For the same molecule, the IC50 [40] was 2.05 nM, the IC50 [41] was 51.8 nM and the IC50 [42] was 17.3 nM. It also gave an IC50 [43] of 14.9 nM, an IC50 [44] of 3.36 nM and an IC50 [45] of 28.5 nM. The IC50 [46] was 30.4 nM, the IC50 [47] was greater than 64 nM and the IC50 [48] was greater than 64 nM. The IC50 [49] was greater than 64 nM, the IC50 [50] was greater than 64 nM and the IC50 [51] was 4.56 nM.
